Measurements published in PubChem BioAssay (NCI).
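Compound exposure: 48 hours, 5 concentrations, 96-well plates. The concentration for 50% growth inhibition is given as GI50. TGI: concentration producing complete growth inhibition.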

Experiments:
Experiment in all cases: NCI anticancer screen, dose series, 48 h
[1] = test system: ACHN renal
[2] = test system: HL-60(TB) leukemia
[3] = test system: HT29 colon
[4] = test system: NCI-H460 lung
[5] = test system: SF-295 CNS
[6] = test system: SK-MEL-2 melanoma
[7] = test system: SN12C renal
[8] = test system: LOX IMVI melanoma
[9] = test system: TK-10 renal
[10] = test system: MCF7 breast

SMILES	TGI [1]	TGI [2]	TGI [3]	TGI [4]	TGI [5]	TGI [6]	TGI [7]	TGI [8]	TGI [9]	GI50 [1]	GI50 [2]	GI50 [8]	GI50 [4]	GI50 [5]	GI50 [6]	GI50 [7]	GI50 [9]	GI50 [3]	GI50 [10]	TGI [10]
O=C(CCc1cc(-c2ccco2)n(-c2ccc([N+](=O)[O-])cc2[N+](=O)[O-])n1)Nc1ccccc1	> 100 µM	> 100 µM	> 100 µM	> 100 µM	> 100 µM	> 100 µM	> 100 µM	–	–	–	–	–	–	–	–	–	–	–	–	–
COC(=O)c1cc(O)ccc1NC(=O)c1ccc(O)cc1	> 100 µM	> 100 µM	> 100 µM	> 100 µM	> 100 µM	> 100 µM	–	> 100 µM	> 100 µM	–	–	–	–	–	–	–	–	–	–	–
Cc1ccccc1C(C#N)/C(=N/NC(=O)C(=O)NN)C(=O)Nc1cccc(C(F)(F)F)c1 (stereo not given)	> 100 µM	> 100 µM	> 100 µM	> 100 µM	> 100 µM	> 100 µM	> 100 µM	–	> 100 µM	–	–	–	–	–	–	–	–	–	–	–
COc1ccc(OC)c2c3c(ncc12)-c1cc2c(cc1C3)OCO2	> 100 µM	> 100 µM	–	> 100 µM	> 100 µM	> 100 µM	> 100 µM	1.85 µM	> 100 µM	2.97 µM	24.8 µM	0.104 µM	5.6 µM	27 µM	> 100 µM	> 100 µM	> 100 µM	–	–	–
CC1=C(C(=O)Nc2ccc(Cl)c(Cl)c2)C(c2cccc(O)c2)NC(=S)N1 (stereo not given)	19.7 µM	44.2 µM	–	21.4 µM	17.6 µM	18.3 µM	20.1 µM	13.8 µM	–	9.23 µM	11.2 µM	7.09 µM	13.5 µM	8.63 µM	8 µM	8.66 µM	–	–	–	–
[O-][N+]1=C(c2ccccc2)COc2ccccc21	> 100 µM	> 100 µM	> 100 µM	> 100 µM	> 100 µM	> 100 µM	> 100 µM	> 100 µM	> 100 µM	–	–	–	–	–	–	–	–	–	–	–
CCOCC[P+](c1ccccc1)(c1ccccc1)c1ccccc1	> 100 µM	36 µM	96.3 µM	> 100 µM	78.6 µM	47.9 µM	> 100 µM	42.3 µM	–	35.8 µM	12.2 µM	15.3 µM	25.7 µM	20.4 µM	18.6 µM	24.6 µM	–	16.2 µM	13.7 µM	66.4 µM
COc1ccc2c(c1)c(=O)oc1cc(OC/C(=N\O)c3ccc(F)cc3)ccc12	55.4 µM	–	36.6 µM	53.3 µM	49.1 µM	47.4 µM	34.3 µM	33 µM	52.8 µM	21 µM	–	17.8 µM	18.6 µM	20.2 µM	19.1 µM	16.9 µM	17.5 µM	15.5 µM	19.8 µM	66 µM
O=c1[nH]c(C2CCCCC2)nc2cc(Cl)ccc12	> 100 µM	–	> 100 µM	–	> 100 µM	> 100 µM	> 100 µM	–	> 100 µM	–	–	–	–	–	–	–	–	–	–	–
COC(=O)/C(Cl)=C1/CC1COCc1ccccc1 (stereo not given)	81.6 µM	38.7 µM	58 µM	> 100 µM	> 100 µM	96.9 µM	> 100 µM	> 10 µM	> 100 µM	–	–	–	–	–	–	–	–	–	–	–
Cn1c2ccccc2c(=S)c2cc(NC(=O)CCCCC(=O)Nc3ccc4c(c3)c(=S)c3ccccc3n4C)ccc21	> 100 µM	–	> 100 µM	> 100 µM	> 100 µM	> 100 µM	> 100 µM	> 100 µM	> 100 µM	–	–	–	–	–	–	–	–	–	–	> 100 µM
C/C(CN1C(=O)c2ccccc2C1=O)=N\NS(C)(=O)=O	> 100 µM	> 100 µM	> 100 µM	> 100 µM	> 100 µM	> 100 µM	> 100 µM	–	> 100 µM	–	–	–	–	–	–	–	–	–	–	–
COC(=O)C1CCc2nnc(-c3cccnc3)n21 (stereo not given)	> 100 µM	> 100 µM	–	> 100 µM	–	> 100 µM	> 100 µM	–	> 100 µM	–	–	–	–	–	–	–	–	–	–	–
C/C(CC(=O)Nc1ccc([N+](=O)[O-])cc1)=N/N=C(N)N	> 100 µM	> 100 µM	> 100 µM	> 100 µM	> 100 µM	> 100 µM	–	> 100 µM	> 100 µM	–	–	–	–	–	–	–	–	–	–	–
O=C1CSc2ccncc2N1	> 100 µM	> 100 µM	> 100 µM	> 100 µM	> 100 µM	> 100 µM	> 100 µM	> 100 µM	> 100 µM	–	–	–	–	–	–	–	–	–	–	–
Cc1ccc(S(=O)(=O)NC(=O)Nc2nc(Cl)cc(Cl)n2)cc1	> 100 µM	> 100 µM	–	> 100 µM	> 100 µM	> 100 µM	> 100 µM	> 100 µM	> 100 µM	–	–	–	–	–	–	–	–	–	–	–
Cn1c(-c2ccccc2)c/c(=N\NS(C)(=O)=O)c2cc(S(=O)(=O)O)ccc21	> 100 µM	> 100 µM	> 100 µM	> 100 µM	> 100 µM	> 100 µM	> 100 µM	> 100 µM	> 100 µM	–	–	–	–	–	–	–	–	–	–	–
O=[N+]([O-])c1ccc(C2N3CCCCC3[C@@H]3c4[nH]c5ccccc5c4CCN23)cc1 (stereo not given in full)	43.8 µM	> 100 µM	16 µM	40.9 µM	> 100 µM	33 µM	32.3 µM	–	51.1 µM	–	–	–	–	–	–	–	–	–	–	–
CC(C)(C)C1CCN(C(=O)c2ccccc2)CC1	> 100 µM	> 100 µM	> 100 µM	> 100 µM	> 100 µM	> 100 µM	> 100 µM	> 100 µM	> 100 µM	–	–	–	–	–	–	–	–	–	–	–
O=C(CN/C=C\C(=O)c1cc(Cl)ccc1Cl)c1ccccc1	> 100 µM	> 100 µM	> 100 µM	> 100 µM	50.7 µM	–	57.1 µM	35.1 µM	73.7 µM	> 100 µM	73.4 µM	19.8 µM	32.3 µM	20.4 µM	–	25.9 µM	26 µM	31.6 µM	22.7 µM	51.9 µM

SMILES	TGI [1]	TGI [2]	TGI [3]	TGI [4]	TGI [5]	TGI [6]	TGI [7]	TGI [8]	TGI [9]	GI50 [1]	GI50 [2]	GI50 [8]	GI50 [4]	GI50 [5]	GI50 [6]	GI50 [7]	GI50 [9]	GI50 [3]	GI50 [10]	TGI [10]
O=C1/C(=c2\c3ccccc3n3c(=O)c4ccccc4nc23)Nc2ccccc21	> 100 µM	–	> 100 µM	> 100 µM	> 100 µM	> 100 µM	> 100 µM	> 100 µM	> 100 µM	–	–	–	–	–	–	–	–	–	–	> 100 µM
NS(=O)(=O)c1ccc(NCc2cnc3ccccc3c2)cc1	> 100 µM	3.96 µM	> 100 µM	> 100 µM	> 100 µM	> 100 µM	> 100 µM	–	> 100 µM	–	–	–	–	–	–	–	–	–	–	> 100 µM
COc1cc2c(cc1C)NC(=O)/C2=C/c1c(C)nc2sc(C)cn12	> 100 µM	–	> 100 µM	> 100 µM	> 100 µM	> 100 µM	> 100 µM	> 100 µM	> 100 µM	> 100 µM	–	> 100 µM	45.7 µM	45.2 µM	> 100 µM	74.5 µM	68 µM	> 100 µM	64.1 µM	> 100 µM
O=C(/C=C/c1ccc2c(c1)OCO2)c1ccccc(=O)c1O	> 100 µM	–	26.3 µM	41.7 µM	–	72.7 µM	> 100 µM	> 100 µM	43.5 µM	–	–	–	–	–	–	–	–	–	–	–
COc1ccc(/C=C/C(=O)c2ccc(NC(=O)CSc3nnc(-c4cc(OC)c(OC)c(OC)c4)o3)cc2)cc1	3.22 µM	–	3.62 µM	3.85 µM	3.35 µM	4.82 µM	3.57 µM	1.28 µM	3.03 µM	1.72 µM	–	0.32 µM	2 µM	1.77 µM	1.79 µM	1.83 µM	1.52 µM	1.83 µM	1.27 µM	3.68 µM
Cn1c(C2CC(C)(C)c3c2c2ccccc2n3C)cc2ccccc21 (stereo not given)	> 304 µM	> 304 µM	> 304 µM	> 304 µM	> 304 µM	> 304 µM	> 304 µM	> 304 µM	> 304 µM	–	–	–	–	–	–	–	–	–	–	–
COc1cc([C@@H]2c3cc4c(cc3[C@@H](NC(=O)c3ccc([N+](=O)[O-])cc3)C3COC(=O)[C@@H]32)OCO4)cc(OC)c1O (stereo not given in full)	1.58 µM	0.407 µM	5.68 µM	2.38 µM	11.5 µM	6.61 µM	1.37 µM	5.86 µM	5.86 µM	–	–	–	–	–	–	–	–	–	–	–
N#Cc1ccccc1/C=N/O	> 100 µM	> 62.2 µM	> 100 µM	> 100 µM	> 100 µM	–	> 100 µM	> 100 µM	> 100 µM	–	–	–	–	–	–	–	–	–	–	–
Cc1cc2c(=O)cc(-c3ccc(C(=O)O)cc3)oc2c(C(=O)O)c1C	> 100 µM	> 100 µM	> 100 µM	> 100 µM	> 100 µM	> 100 µM	> 100 µM	> 100 µM	> 100 µM	–	–	–	–	–	–	–	–	–	–	–
O=C1CC23CC(=O)CC2(C1)c1ccccc1C3=O (stereo not given)	> 100 µM	> 100 µM	> 100 µM	> 100 µM	> 100 µM	> 100 µM	> 100 µM	> 100 µM	> 100 µM	–	–	–	–	–	–	–	–	–	–	–
C[C@H]1[C@H](C)CC[C@]2(C(=O)O)CC[C@]3(C)C(=CC[C@@H]4[C@@]5(C)CC[C@H](OC(=O)/C=C\c6ccc(O)cc6)C(C)(C)[C@@H]5CC[C@]43C)[C@H]12	12.1 µM	–	19.5 µM	10.9 µM	31.2 µM	> 100 µM	6.76 µM	15.9 µM	4.66 µM	2.89 µM	–	3.86 µM	2.23 µM	3.03 µM	28.9 µM	1.67 µM	1.15 µM	4.87 µM	1.36 µM	3.63 µM
O=CN/C=C/c1ccccc1O	> 100 µM	> 100 µM	> 100 µM	> 100 µM	> 100 µM	> 100 µM	> 100 µM	> 100 µM	> 100 µM	–	–	–	–	–	–	–	–	–	–	–
O=C(Cc1nc2ccccc2s1)NC12CC3CC(CC(C3)C1)C2	> 100 µM	> 100 µM	> 100 µM	> 100 µM	> 100 µM	> 100 µM	> 100 µM	> 100 µM	> 100 µM	–	–	–	–	–	–	–	–	–	–	–
C=C1CCC2C(C)(CO)C(O)CCC2(C)C1CC(O)C1=CCOC1=O (stereo not given)	> 100 µM	85.9 µM	> 100 µM	> 100 µM	> 100 µM	> 100 µM	> 100 µM	> 100 µM	> 100 µM	–	–	–	–	–	–	–	–	–	–	–
Cc1ccc(C2CC(c3cccc(Nc4ccncc4)c3)=NN2c2ccc(Cl)cc2)cc1 (stereo not given)	2.99 µM	4 µM	3.9 µM	3.34 µM	3.19 µM	–	3.13 µM	2.97 µM	3.35 µM	1.63 µM	1.92 µM	1.62 µM	1.72 µM	1.79 µM	–	1.66 µM	1.78 µM	1.86 µM	1.8 µM	3.86 µM
FC(F)(F)c1ccccc1C=NC12CC3CC(CC(C3)C1)C2	> 100 µM	> 100 µM	> 100 µM	> 100 µM	> 100 µM	> 100 µM	> 100 µM	> 100 µM	> 100 µM	–	–	–	–	–	–	–	–	–	–	–
COC(=O)c1c/c(=N\NC(=O)CC(=O)Nc2ccc(C)cc2)c2ccccc2o1	> 100 µM	> 100 µM	> 100 µM	> 100 µM	> 100 µM	> 100 µM	> 100 µM	> 100 µM	> 100 µM	–	–	–	–	–	–	–	–	–	–	–
Cc1cc(NC(=O)C(=O)Cc2nc3ccccc3s2)ccc1Cl	> 100 µM	–	> 100 µM	> 100 µM	> 100 µM	> 100 µM	> 100 µM	> 100 µM	> 100 µM	–	–	–	–	–	–	–	–	–	–	> 100 µM
Clc1ccc(CCn2cncn2)c(Cl)c1	> 100 µM	> 100 µM	> 100 µM	> 100 µM	> 100 µM	–	> 100 µM	–	> 100 µM	–	–	–	–	–	–	–	–	–	–	–
Cn1cc(-c2nc(-c3cn(C)c4ncccc34)cs2)c2cc(F)ccc21	> 100 µM	88.7 µM	–	18.9 µM	6.18 µM	37.2 µM	> 100 µM	5.69 µM	38 µM	2.96 µM	1.67 µM	1.15 µM	1.12 µM	0.709 µM	3.96 µM	3.63 µM	3.01 µM	–	0.528 µM	60.5 µM
